Molecular target: T1, mitochondrial ATP synthase (Mus musculus, UniProt P56480+Q03265)
T1 construct: from tissue; host or cells: mouse heart, isolated mitochondria (fresh or frozen)
Experiment: ATP synthesis (oxygen consumption, Seahorse XF96) in fresh heart mitochondria
Assay type: biochemical
Text: To assess whether the fraction of synthetic and reverse hydrolytic activities of mitochondrial ATP synthase can be measured in the same preparation, a protocol was developed to monitor changes in oxygen consumption and proton release in response to changes in mitochondrial ATP synthase activity. The proton released and the concomitant changes in the pH can be monitored using the ECAR (extracellular acidification) channel in the Agilent Seahorse XF analyzer using isolated mitochondria, to ensure that the changes in pH cannot be attributed to glycolysis or other contributors to ECAR.
Mice were anesthetized with isoflurane followed by a cervical dislocation, and the heart was immediately removed and placed in ice cold relaxation buffer (5 mM sodium pyrophosphate, 100 mM KCl, 5 mM EGTA, 5 mM HEPES; pH 7.4). The heart was squeezed with tweezers to remove blood, minced with scissors, and then placed in a glass-glass Dounce homogenizer with 3 mL of HES homogenization buffer (250 mM sucrose, 5 mM HEPES, 1 mM EDTA; pH to 7.2, adjusted with KOH). The heart tissue was homogenized first with the loose pestle and followed by the tight pestle. The homogenized tissue was placed in a pre-chilled 15 ml conical tube and centrifuged at 900×g (4° C.) for 10 minutes (min). The supernatant was removed, placed in a new tube and centrifuged again at 900×g for 10 min. The supernatant was then transferred to 2 mL microcentrifuge tubes and centrifuged at 10,000×g (4° C.) for 10 min. The mitochondrial pellets were re-suspended in ice cold HES buffer and mitochondrial protein was measured with a BCA assay (Pierce). The concentrated mitochondrial pellet was stored on ice.
Heart mitochondria (0.75-1.5 μg) were loaded into a Seahorse XF96 microplate in 20 μL of MAS (70 mM Sucrose, 220 mM Mannitol, 5 mM KH2PO4, 5 mM MgCl2, 1 mM EGTA, 2 mM HEPES; pH 7.2) plus 1% free fatty acid BSA containing substrates. The loaded plate was centrifuged at 2,000×g for 5 min at 4° C. […]
Oxygen consumption was measured in isolated fresh intact mitochondria from mouse heart, as oxygen consumption is linked to maximal ATP synthesis and proton release when mitochondria are respiring either in the presence of substrates and ADP (ATP synthesizing mitochondria or state 3) or in the presence of substrates but not ADP (state 4). […]
OCR and ECAR were measured in a Seahorse XF96 analyzer under basal conditions as well as after injection of 2 μM oligomycin, two sequential additions of 1.5 μM FCCP, followed by 1 μM rotenone with 2 μM antimycin A. Respiratory parameters were calculated according to standard protocols, and all rates were corrected for non-mitochondrial respiration/background signal by subtracting the oxygen consumption rate insensitive to rotenone plus antimycin A.

Measured: change in ATP synthesis

Oc1ccc2c(c1)OC(c1ccc(O)c(C(F)(F)F)c1)C(O)C2 (single isomer, unassigned) [Compound 77b, 2-(4-hydroxy-3-(trifluoromethyl)phenyl)chromane-3,7-diol]
no change: Complex I substrates, fresh mitochondria | Complex II substrates, fresh mitochondria | fresh heart mitochondria (FIG. 1, FIG. 2)

Source: patent publication US20240254135A1, “POLYPHENOL COMPOUNDS” (Epirium Bio Inc., priority 2022, published 2024)
